Values after ≈ are worked out from the molar mass of the structure shown.
Columns and labels:
Coho salmon = experiment: Laboratory fish toxicity test (Table 1); format: in vivo, Oncorhynchus kisutch; details: tech, 12 C, soft water
Experimental: (§1) Fish were obtained from state and federal hatcheries and maintained prior to testing by a trained fish culturist. Fish of total length 2-5 cm were used in laboratory tests while for outdoor tests small fish (4-6 cm in length) and larger carp and buffalo (Ictiobus cyprinellus) were used.
(§2) In all tests 10 fish of each were exposed to selective concentrations of the toxicant. Mortalities were observed and recorded at 1,2 and 6 hours on the first day and once daily thereafter, during 96 hour exposure.
(§3) Laboratory tests were also conducted in soft water 12° C. wherein the toxicant was evaluated against fifteen species of fish including both cold and warm water varieties. In Table 1, the LC 50 toxicity values for N-(2-hydroxyethyl) digeranylamine is shown for various species. LC50 is defined as the amount (mg/liter) of toxicant required to kill 50 percent of the particular fish species at 95% confidence interval.

Chinook salmon = experiment: Laboratory fish toxicity test (Table 1); format: in vivo, Oncorhynchus tschawytscha; details: tech, 12 C, soft water
Experimental: as §1, §2, §3

Goldfish = experiment: Laboratory fish toxicity test (Table 1); format: in vivo, Carassius auratus; details: tech, 12 C, soft water
Experimental: as §1, §2, §3

Green sunfish [1] = experiment: Laboratory fish toxicity test (Table 1); format: in vivo, Lepomis cyanellus; details: tech, 12 C, soft water
Experimental: as §1, §2, §3

Largermouth bass = experiment: Laboratory fish toxicity test (Table 1); format: in vivo, Micropterus salmoides; details: tech, 12 C, soft water
Experimental: as §1, §2, §3

Rainbow trout = experiment: Outdoor plastic pool test (Table 3); format: in vivo, Salmo gairdneri; details: 96 hour; for % kill: 50% formulation (hydrochloride salt)
Experimental: (§4) N-(2-hydroxyethyl) digeranylamine was tested as a selective fish toxicant in outdoor pools stocked with various fish species and lined with black plastic using 50% water soluble formulations (hydrochloride salt). The formulation was added to each of four pools of 4,000-liter capacity at concentrations of 0.10, 0.15, 0.20, and 0.30 mg/liter. Another pool containing the same number, size, and species of fish served as a control. The test water had algal blooms, a pH of about 8.5, and a total hardness of about 200 mg/liter as CaCo3. The temperature was cool enough (15°-16°C.) to permit the use of trout.
as §1, §2
(§5) Outdoor pool tests were conducted using 50% formulation of the toxicant N-(2-hydroxyethyl) digeranylamine as indicated in Example 8. […] If selective control of white sucker and common carp is desired in an environment which includes rainbow trout, one should employ an effective concentration of toxicant which is at least as great as 0.05 mg/liter but less than 0.1 mg/liter. As a practical fishery practice in the northern United States and Canada, rainbow trout are not usually stocked in bodies of water containing the common carp species; the habitat conditions including water temperature and available oxygen of these species are usually quite different. Common carp and rainbow trout have quite different oxygen and temperature requirements and these differences generally preclude both species cohabitating under natural conditions. In this case the useful range to control common carp and white sucker can be much broader, i.e. 0.1 to 0.3 mg/liter.

Carp = experiment: Outdoor plastic pool test (Table 3); format: in vivo, Cyprinus carpio; details: for % kill: 50% formulation (hydrochloride salt); for survival (in words): larger carp (19 cm)
Experimental: as §4, §1, §2, §5

White sucker = experiment: Outdoor plastic pool test (Table 3); format: in vivo, Catostomus commersoni; details: for % kill: 96 hour, 50% formulation (hydrochloride salt); for survival (in words): white suckers
Experimental: as §4, §1, §2, §5

Green sunfish [2] = experiment: Influence of pH on toxicity to green sunfish in soft water (Table 4); format: in vivo, Lepomis cyanellus; details: tech, 12 C
Experimental: To determine the influence of pH of the water used on the toxicity of the terpenylaminoalkanols evaluated, experiments were conducted with green sunfish (Lepomis cyanellus) using soft water at 12° C. and chemically buffered over the range of pH 6 to pH 9.

## CC(C)=CCC/C(C)=C/CN(C/C=C(\C)CCC=C(C)C)CCO [N-(2-hydroxyethyl) digeranylamine]
Coho salmon; 3 hours
  LC50: 0.320 µg/mL (≈ 0.959 µM)
Coho salmon; 6 hours
  LC50: 0.240 µg/mL (≈ 0.72 µM)
Coho salmon; 24 hours
  LC50: 0.200 µg/mL (≈ 0.6 µM)
Coho salmon; 96 hours
  LC50: 0.142 µg/mL (≈ 0.426 µM)
Chinook salmon; 3 hours
  LC50: 0.300 µg/mL (≈ 0.899 µM)
Chinook salmon; 6 hours
  LC50: 0.210 µg/mL (≈ 0.63 µM)
Chinook salmon; 24 hours
  LC50: 0.167 µg/mL (≈ 0.501 µM)
Chinook salmon; 96 hours
  LC50: 0.129 µg/mL (≈ 0.387 µM)
Goldfish; 24 hours
  LC50: 0.961 µg/mL (≈ 2.88 µM)
Goldfish; 96 hours
  LC50: 0.290 µg/mL (≈ 0.869 µM)
Green sunfish [1]; 24 hours
  LC50: 0.640 µg/mL (≈ 1.92 µM)
Green sunfish [1]; 96 hours
  LC50: 0.640 µg/mL (≈ 1.92 µM)
Largermouth bass; 3 hours
  LC50: 1.40 µg/mL (≈ 4.2 µM)
Largermouth bass; 6 hours
  LC50: 0.530 µg/mL (≈ 1.59 µM)
Largermouth bass; 24 hours
  LC50: 0.380 µg/mL (≈ 1.14 µM)
Largermouth bass; 96 hours
  LC50: 0.360 µg/mL (≈ 1.08 µM)
Rainbow trout; 0.10 mg/l
  % kill: 100%
Rainbow trout; 0.15 mg/l
  % kill: 100%
Rainbow trout; 0.20 mg/l
  % kill: 100%
Rainbow trout; 0.30 mg/l
  % kill: 100%
Rainbow trout; above 0.10 mg/l, 50% formulation
  kill (in words): completely eliminated at all concentrations above 0.10 mg/l
Carp; carp (large), 0.10 mg/l, 96 hour
  % kill: 27%
Carp; carp (large), 0.15 mg/l, 96 hour
  % kill: 66%
Carp; carp (large), 0.20 mg/l, 96 hour
  % kill: 100%
Carp; carp (large), 0.30 mg/l, 96 hour
  % kill: 100%
Carp; carp (small), 0.10 mg/l, 96 hour
  % kill: 100%
Carp; carp (small), 0.15 mg/l, 96 hour
  % kill: 100%
Carp; carp (small), 0.20 mg/l, 96 hour
  % kill: 100%
Carp; carp (small), 0.30 mg/l, 96 hour
  % kill: 100%
Carp; 0.2 mg/liter or higher
  survival (in words): none survived
Carp; 0.10 and 0.15 mg/liter
  survival (in words): Some white suckers and larger carp (19 cm) survived
Carp; small common carp (4-6 cm), above 0.10 mg/l, 96 hour
  kill (in words): completely eliminated at all concentrations above 0.10 mg/l
White sucker; 0.10 mg/l
  % kill: 20%
White sucker; 0.15 mg/l
  % kill: 70%
White sucker; 0.20 mg/l
  % kill: 100%
White sucker; 0.30 mg/l
  % kill: 100%
White sucker; 0.2 mg/liter or higher
  survival (in words): none survived
White sucker; 0.10 and 0.15 mg/liter
  survival (in words): Some white suckers and larger carp (19 cm) survived
Green sunfish [2]; pH 6.0, 3 hours
  LC50: 6.34 µg/mL (≈ 19 µM)
Green sunfish [2]; pH 6.0, 6 hours
  LC50: 5.00 µg/mL (≈ 15 µM)
Green sunfish [2]; pH 6.0, 24 hours
  LC50: 2.84 µg/mL (≈ 8.51 µM)
Green sunfish [2]; pH 6.0, 96 hours
  LC50: 1.85 µg/mL (≈ 5.55 µM)
Green sunfish [2]; pH 7.5, 3 hours
  LC50: 2.47 µg/mL (≈ 7.4 µM)
Green sunfish [2]; pH 7.5, 6 hours
  LC50: 1.64 µg/mL (≈ 4.92 µM)
Green sunfish [2]; pH 7.5, 24 hours
  LC50: 1.00 µg/mL (≈ 3 µM)
Green sunfish [2]; pH 7.5, 96 hours
  LC50: 0.829 µg/mL (≈ 2.49 µM)
Green sunfish [2]; pH 8.0, 24 hours
  LC50: 0.520 µg/mL (≈ 1.56 µM)
Green sunfish [2]; pH 8.0, 96 hours
  LC50: 0.520 µg/mL (≈ 1.56 µM)
Green sunfish [2]; pH 9.0, 3 hours
  LC50: 0.870 µg/mL (≈ 2.61 µM)
Green sunfish [2]; pH 9.0, 24 hours
  LC50: 0.360 µg/mL (≈ 1.08 µM)
Green sunfish [2]; pH 9.0, 96 hours
  LC50: 0.268 µg/mL (≈ 0.803 µM)

From US4174406A, “Terpenylaminoalkanol fish toxicants” (priority 1977, dated 1979)
